Test results as given in patent US20250051391A1, “PEPTIDE INHIBITORS AND METHODS FOR INHIBITING PROTEIN AGGREGATION IN NEURONS AND NEURODEGENERATIVE DISEASES” (THE GOVERNING COUNCIL OF THE UNIVERSITY OF TORONTO, priority 2021, published 2025).
Ends that are not written are not given here.

Test system: rat substantia nigra dopaminergic neurons
Assay: AAV V1S/SV2 a-syn oligomer rat model
Format: in vivo
Experimental: Adult female Sprague-Dawley rats (250-280 g; Envigo) were pair-housed in cages with wood bedding and had access to food and water ad libitum. The animal colony was maintained in a regular 12-h light/dark cycle. All procedures were approved by the University Health Network Animal Care Committee in accordance with guidelines and regulations set by the Canadian Council on Animal Care.
Animals were secured in a stereotactic frame under isoflurane/oxygen anaesthesia and ketoprofen (5 mg/kg) analgesia. The surgical site was shaved and sterilized with iodine/betadine prior to making a 2 cm incision along the midline. The scalp was exposed and a unilateral injection targeting the SN was performed at coordinates AP−5.2 mm, ML−2 mm and DV−7.4 mm with respect to the bregma as a point of reference. For each animal, a total volume of 2 μl of virus was injected at a rate of 0.5 μl/min using a microinjection pump and 10 μl Hamilton syringe with a 26-gauge needle. For A53T groups, 1 μl (low dose) or 1.34 μl (high dose) of AAV1/2-A53T a-syn (5.1×10^12 genomic particles/ml), 0.14 μl of AAV1/2-Pdpep1.3-GFP or scramble1.3-GFP (5.1×10^12 genomic particles/ml) and 0.86 μl or 0.52 μl of sterile PBS was injected; for EV groups, 1 μl (low dose) or 1.34 μl (high dose) of AAV1/2-EV (5.1×10^12 genomic particles/ml) replaced AAV1/2-A53T. For V1S+SV2 groups, 0.58 μl of AAV1/2-V1S (1.1×10^12 genomic particles/ml), 0.58 μl of AAV1/2-SV2 (1.1×10^12 genomic particles/ml), 0.14 μl of AAV1/2-Pdpep1.3-RFP or scramble1.3-RFP (5.1×10^12 genomic particles/ml) and 0.7 μl of sterile PBS was injected; for the YFP groups, 1.16 μl of AAV1/2-YFP (1.1×10^12 genomic particles/ml), 0.14 μl of AAV1/2-Pdpep1.3-RFP or scramble1.3-RFP (5.1×10^12 genomic particles/ml) and 0.7 μl of sterile PBS was injected. At the end of virus injection, the needle remained in place for 5 minutes before gradual removal.
Animals were uthanized by transcardial perfusion with heparinised saline under isoflurane/oxygen anaesthesia. Brains were then removed and the ventral part, including the ventral striatum, was snap frozen in liquid dry ice-cooled isopentane. […]
Immunofluorescence staining for a-syn, tyrosine hydroxylase and LAMP1 was performed by washing free-floating sections with PBS-T (0.2% Triton X-100) three times for 10 min each at room temperature. […] Sections were then mounted onto glass slides and allowed to dry and then fluorescence mounting medium (DAKO) was applied followed by cover slips.
Confocal images of immunofluorescent staining were acquired with a Zeiss LSM880 confocal microscope equipped with 405, 488, 555, and 639 nm laser lines. All images were taken within the linear range at constant gain and pinhole settings at optimal resolution settings determined by the software. […]

Sequence: DEEIERQLKALG [PDpep1.3]
- surviving dopaminergic neurons in the SN and terminals in the striatum (TH) (6 weeks post-injection): increase in surviving dopaminergic neurons
- total a-syn positive area in the SN (6 weeks post-injection): decrease
- a-syn oligomer levels measured by YFP positive area in SN and striatum (6 weeks post-injection, vs Scramble1.3): significant reduction
- YFP mean fluorescence intensity in SN cells positive for TH and RFP (rats, V1S/SV2, 6 weeks post-injection, AAV-expressed RFP peptide): 0.063±0.0167 RFU
